Measurements: patent US10071975B2, “Macrocyclic amidinourea derivatives, methods of preparation and uses thereof as chitinase inhibitors” (CYGNET BIOSCIENCES B.V., priority 2013, dated 2018)
Values after ≈ are worked out from the molar mass of the structure shown. Where two headings read alike, the source gives them in different places.

Key:
C. albicans = experiment: Antimicrobial susceptibility testing (microdilution MIC90), C. albicans strains; format: cell-based; details: Candida albicans; C. albicans (22 strains tested); 24 h, visually and spectrophotometrically
Description: (§1) Sterile plastic microtitration plates containing flat-bottomed wells were used. The plates contained serial dilution of the antifungal agents with a volume of assay medium of 100 μL/well. Two drug-free medium wells were used as sterility and growth controls. The trays were inoculated with 100 μL/well of the final inoculum, with the exception of sterility control wells. […] The microtitration plates were incubated at 37° C. for 24 h. The minimal inhibitory concentrations (MICs) were determined at 24 h both visually and spectrophotometrically measuring the turbidity at 595 nm with a Varian model 1475 spectrophotometer. Results of biological tests are shown in Table 2, biological data are reported as MIC90 that is the minimum concentration required to inhibit the growth of at least the 90% of the strains tested for each species.

[1] = system: C. glabrata fluconazole resistant strains; experiment: microbe, parasite or virus in culture; format: cell-based, Candida glabrata; details: Nakaseomyces glabratus, 24 h
C. krusei = experiment: Antimicrobial susceptibility testing (microdilution MIC90), C. krusei strains; format: cell-based, Candida krusei; details: Pichia kudriavzevii, 24 h
Description: as §1

C. tropicalis = experiment: Antimicrobial susceptibility testing (microdilution MIC90), C. tropicalis strains; format: cell-based; details: Candida tropicalis; C. tropicalis (11 strains tested); 24 h
Description: as §1

C. guilliermondii = experiment: Antimicrobial susceptibility testing (microdilution MIC90), C. guilliermondii strains; format: cell-based, Candida guilliermondii; details: Meyerozyma guilliermondii; C. guilliermondii (10 strains tested); 24 h
Description: as §1

C. kefyr = experiment: Antimicrobial susceptibility testing (microdilution MIC90), C. kefyr strains; format: cell-based, Candida kefyr; details: Kluyveromyces marxianus; C. kefyr (10 strains tested); 24 h
Description: as §1

[2] = system: C. albicans fluconazole resistant strains; experiment: microbe, parasite or virus in culture; format: cell-based; details: Candida albicans, 24 h
C. glabrata = experiment: Antimicrobial susceptibility testing (microdilution MIC90), C. glabrata strains; format: cell-based, Candida glabrata; details: Nakaseomyces glabratus; C. glabrata (26 strains tested); 24 h
Description: as §1

C. parapsilosis = experiment: Antimicrobial susceptibility testing (microdilution MIC90), C. parapsilosis strains; format: cell-based, Candida parapsilosis; details: Lodderomyces parapsilosis; C. parapsilosis (24 strains tested); 24 h
Description: as §1

[3] = molecular target: chitinase enzyme extracted from Trichoderma viride; experiment: Chitinase inhibition assay (NP-GlcNAc substrate); format: biochemical
Description: Chitinase inhibition assays were conducted against an example of the GH18 family of chitinases, i.e the chitinase enzyme extracted from Trichoderma viride. This enzyme has an high degree of identity compared to chitinase 4 of Candida albicans, and is commercially available from Sigma-Aldrich (catalogue ID: C8241).
The substrate used was the NP-GlcNAc (Sigma-Aldrich, catalogue ID: N9376) dissolved in MES 50 mM at pH6.0; the final concentration was 250 μM. The enzyme was resuspended at 0.11 mg/ml in MES 50 mM at pH 6.0, with a final concentration for the assay of 73 nM diluting with MES 50 mM and BSA 20 μg/ml at pH 6.0. A stock solution of the inhibitors was prepared at 50 mM in DMSO 100%.
The mixture with the inhibitor at various concentrations and the enzyme was prepared directly into the reading plate and left to incubate at room temperature for 20 minutes or three hours. At the end of the incubation times, the substrate was added and the reading was conducted by recording the values up to a maximum time of 10 minutes. The substrate concentration was measured by reading UV absorption at 300 nm (εM^300: 11100), while, the product of hydrolysis were measured at 400 nm (ΔεM^400: 2120). Both IC50 and Ki can be calculated.

[4] = C. krusei (13 strains tested), read-out: MIC90
[5] = strain DSY284, ERG11 Mutation, mean of three measurements
[6] = strain DSY289, ERG11 Mutation (2)
[7] = strain DSY291, ERG11 Mutation (2)
[8] = strain DSY292, ERG11 Mutation (3)
[9] = strain DSY751, ↑MDR1, ERG11 Mutation
[10] = Enz.-inhib. incubation time 20 min
[11] = Enz.-inhib. incubation time 3 h

| Compound | MIC90 (C. albicans) [µg/mL] | MIC ([1]; strain DSY530, ↑CDR1) [µg/mL] | MIC ([1]; strain DSY754, ↑CDR1) [µg/mL] | MIC ([1]; strain DSY756, ↑CDR1-CDR2-SNQ2) [µg/mL] | MIC ([1]; strain DSY2254, ↑CDR1-CDR2) [µg/mL] | MIC90 (C. tropicalis) [µg/mL] | MIC90 (C. guilliermondii) [µg/mL] | MIC90 (C. kefyr) [µg/mL] | MIC [2, 5] [µg/mL] | MIC [2, 6] [µg/mL] | MIC [2, 7] [µg/mL] | MIC [2, 8] [µg/mL] | MIC ([2]; strain DSY296, ERG11 Mutation) [µg/mL] | MIC ([2]; strain DSY348, ERG11 Mutation) [µg/mL] | MIC ([2]; strain DSY732, ↑CDR1-CDR2) [µg/mL] | MIC ([2]; strain DSY735, ↑CDR1-CDR2) [µg/mL] | MIC ([2]; strain DSY750, ↑MDR1) [µg/mL] | MIC [2, 9] [µg/mL] | MIC ([2]; strain DSY775, ERG11 Mutation) [µg/mL] | MIC ([2]; strain DSY2323, ↑CDR2-MDR1) [µg/mL] | further results |
| --- | --- | --- | --- | --- | --- | --- | --- | --- | --- | --- | --- | --- | --- | --- | --- | --- | --- | --- | --- | --- | --- |
| C/C=C/CNC(=N)NCCCCCCCCN1CCCCCOC(=O)CCNC(=N)NC1=O [Example 19, 1-[(E)-but-2-enyl]-3-[8-(6-imino-2,8-dioxo-1-oxa-5,7,9-triazacyclotetradec-9-yl)octyl]guanidine] | 32 (≈ 68.7 µM) | 64 (≈ 137 µM) | 64 (≈ 137 µM) | 128 (≈ 275 µM) | 128 (≈ 275 µM) | 32 (≈ 68.7 µM) | 32 (≈ 68.7 µM) | 32 (≈ 68.7 µM) | 16 (≈ 34.4 µM) | 8 (≈ 17.2 µM) | 8 (≈ 17.2 µM) | 16 (≈ 34.4 µM) | 16 (≈ 34.4 µM) | 8 (≈ 17.2 µM) | 8 (≈ 17.2 µM) | 8 (≈ 17.2 µM) | 16 (≈ 34.4 µM) | 16 (≈ 34.4 µM) | 16 (≈ 34.4 µM) | 16 (≈ 34.4 µM) | MIC ([1]; strain DSY2271, ↑CDR2): 64 µg/mL (≈ 137 µM); MIC90 (C. krusei; [4]): 64 µg/mL (≈ 137 µM); MIC90 (C. glabrata): 64 µg/mL (≈ 137 µM); MIC90 (C. parapsilosis): 32 µg/mL (≈ 68.7 µM) |
| N=C(NCCCCCCCCN1CCCCCCCCNC(=N)NC1=O)NCC1CC1 [Compound 34, 1-(cyclopropylmethyl)-3-[8-(4-imino-2-oxo-1,3,5-triazacyclotridec-1-yl)octyl]guanidine] | – | – | – | – | – | – | – | – | – | – | – | – | – | – | – | – | – | – | – | – | IC50 [3, 10]: 252 µM; Ki [3, 10]: 81.4 µM; IC50 [3, 11]: 130 µM; Ki [3, 11]: 42 µM |
| C/C=C/CNC(=N)NCCCCCCCCN1CCCc2ccccc2COc2ccccc2CNC(=N)NC1=O [Example 22, 1-[(2E)-but-2-en-1-yl]-3-(8-{16-imino-14-oxo-2-oxa-13,15,17-triazatricyclo[17.4.0.0^4,9]tricosa-1(19),4(9),5,7,20,22-hexaen-13-yl}octyl)guanidine] | 64 (≈ 114 µM) | – | – | – | – | 128 (≈ 228 µM) | 64 (≈ 114 µM) | 128 (≈ 228 µM) | – | – | – | – | – | – | – | – | – | – | – | – | MIC90 (C. krusei; [4]): 256 µg/mL (≈ 456 µM); MIC90 (C. glabrata): 128 µg/mL (≈ 228 µM); MIC90 (C. parapsilosis): 64 µg/mL (≈ 114 µM) |
| OC(Cn1cncn1)(Cn1cncn1)c1ccc(F)cc1F [F, Fluconazole, reference compound] | 2 (≈ 6.53 µM) | 64 (≈ 209 µM) | 64 (≈ 209 µM) | 128 (≈ 418 µM) | 128 (≈ 418 µM) | 2 (≈ 6.53 µM) | 4 (≈ 13.1 µM) | 1 (≈ 3.27 µM) | 256 (≈ 836 µM) | 256 (≈ 836 µM) | 2 (≈ 6.53 µM) | 64 (≈ 209 µM) | 128 (≈ 418 µM) | 32 (≈ 104 µM) | 16 (≈ 52.2 µM) | 64 (≈ 209 µM) | 2 (≈ 6.53 µM) | 256 (≈ 836 µM) | 128 (≈ 418 µM) | 32 (≈ 104 µM) | MIC ([1]; strain DSY2271, ↑CDR2): 64 µg/mL (≈ 209 µM); MIC90 (C. krusei): 256 µg/mL (≈ 836 µM); MIC90 (C. glabrata): 16 µg/mL (≈ 52.2 µM); MIC90 (C. parapsilosis): 0.5 µg/mL (≈ 1.63 µM) |
| C[C@@H](c1ncncc1F)[C@](O)(Cn1cncn1)c1ccc(F)cc1F [VOR, Voriconazole, reference compound] | – | 0.5 (≈ 1.43 µM) | 2 (≈ 5.73 µM) | 4 (≈ 11.5 µM) | 2 (≈ 5.73 µM) | – | – | – | 4 (≈ 11.5 µM) | 8 (≈ 22.9 µM) | 0.03 (≈ 0.0859 µM) | 2 (≈ 5.73 µM) | 8 (≈ 22.9 µM) | 0.25 (≈ 0.716 µM) | 0.25 (≈ 0.716 µM) | 2 (≈ 5.73 µM) | 0.016 (≈ 0.0458 µM) | 0.25 (≈ 0.716 µM) | 8 (≈ 22.9 µM) | 0.25 (≈ 0.716 µM) | – |
| C/C=C/CNC(=N)NCCCCCCCCN1CCCCCCCCNC(=N)NC1=O [Compound 35, 1-[(E)-but-2-enyl]-3-[8-(4-imino-2-oxo-1,3,5-triazacyclotridec-1-yl)octyl]guanidine] | – | – | – | – | – | – | – | – | – | – | – | – | – | – | – | – | – | – | – | – | IC50 [3, 10]: 185 µM; Ki [3, 10]: 59.6 µM; IC50 [3, 11]: 157 µM; Ki [3, 11]: 50.8 µM |
| C/C=C/CNC(=N)NCCCCCCCCN1CCCCOc2ccccc2CNC(=N)NC1=O [Example 16, 1-[(E)-but-2-enyl]-3-[8-(4-imino-6-oxo-12-oxa-3,5,7-triazabicyclo[11.4.0]heptadeca-1(13),14,16-trien-7-yl)octyl]guanidine] | 16 (≈ 32.9 µM) | 64 (≈ 132 µM) | 64 (≈ 132 µM) | 64 (≈ 132 µM) | 64 (≈ 132 µM) | 8 (≈ 16.5 µM) | 16 (≈ 32.9 µM) | 4 (≈ 8.24 µM) | 16 (≈ 32.9 µM) | 8 (≈ 16.5 µM) | 8 (≈ 16.5 µM) | 16 (≈ 32.9 µM) | 16 (≈ 32.9 µM) | 8 (≈ 16.5 µM) | 8 (≈ 16.5 µM) | 8 (≈ 16.5 µM) | 16 (≈ 32.9 µM) | 16 (≈ 32.9 µM) | 16 (≈ 32.9 µM) | 8 (≈ 16.5 µM) | MIC ([1]; strain DSY2271, ↑CDR2): 64 µg/mL (≈ 132 µM); MIC90 (C. krusei; [4]): 32 µg/mL (≈ 65.9 µM); MIC90 (C. glabrata): 64 µg/mL (≈ 132 µM); MIC90 (C. parapsilosis): 8 µg/mL (≈ 16.5 µM) |
